Experiments:
A549 (Lung) = experiment: Sulphorhodamine B cytotoxicity assay, A549; assay type: cell-based, human; set-up: key to Human cancer cell lines IC50, A549 (Lung): Inactive: inactive, if IC50 > 100 μM; details: SRB assay, 48 hours incubation; for IC50: Homo sapiens, A549, read-out: Human cancer cell lines IC50, A549 (Lung)
Procedure: (§1) The benzylidene analogues were evaluated by Sulphorhodamine B Assay as per reported method [Skehan et al., J. Natl. Cancer Inst. 1990, 82, 1107]. The human cancer cell lines procured from National Cancer institute, Frederick, U.S.A. were used in present study. Cells were grown in tissue culture flasks in complete growth medium (RPMI-1640 medium with 2 mM glutamine, pH 7.4 supplemented with 10% fetal bovine serum, 100 μg/ml streptomycin and 100 units/ml penicillin) in a carbon dioxide incubator (37° C., 5% CO2, 90% RH). The cells at subconfluent stage were harvested from the flask by treatment with trypsin (0.05% in PBS (pH 7.4) containing 0.02% EDTA). Cells with viability of more than 98%, as determined by trypan blue exclusion, were used for determination of cytotoxicity. The cell suspension required concentration of cells was prepared in complete growth medium. Stock solution of 2×10^−2 M of compounds were prepared in DMSO and further dilution was carried out complete growth medium containing 50 μg/ml of gentamycin to obtained working test solution of required concentration. In vitro cytotoxicity against various human cancer cell lines was determined using 96-well cell culture plates. The 100 μl of cell suspension was added to each well of the 96-well cell culture plates. The cells were allowed to grow in CO2 incubator (37° C., 5% CO2, 90% RH) for 24 hours. The test materials in complete growth medium (100 μl) were added after 24 hours incubation to the wells containing cell suspension. The plates were further incubated for 48 hours (37° C. in an atmosphere of 5% CO2 and 90% relative humidity) in a carbon dioxide incubator after addition of test material and then the cell growth was stopped by gently layering trichloroacetic acid (50% TCA, 50 μl) on top of the medium in all the wells. The plates were incubated at 4° C. for one hour to fix the cells attached to the bottom of the wells. The liquid of all the wells was gently pipetted out and discarded. The plates were washed five times with distilled water to remove TCA, growth medium low molecular weight metabolites, serum proteins etc. and air-dried. Cell growth was measured by staining with sulforhodamine B dye. The adsorbed dye was dissolved in Tris-HCl Buffer (100 μl/well, 0.01M, pH 10.4) and plates were gently stirred for 10 minutes on a mechanical stirrer. The optical density (OD) was recorded on ELISA reader at 540 nm. 5-Fluorouracil, Paclitaxel (Taxol), Mitomycin-c and Adriamycin were used as positive controls.

PC-3 (prostate) = experiment: Sulphorhodamine B cytotoxicity assay, PC-3; assay type: cell-based, human; set-up: key to Human cancer cell lines IC50, PC-3 (prostate): Inactive: inactive, if IC50 > 100 μM; details: SRB assay, 48 hours incubation; for IC50: Homo sapiens, read-out: Human cancer cell lines IC50, PC-3 (prostate)
Procedure: as §1

HCT (Colon) = experiment: Sulphorhodamine B cytotoxicity assay, HCT; assay type: cell-based, human; set-up: key to Human cancer cell lines IC50, HCT (Colon): Inactive: inactive, if IC50 > 100 μM; details: SRB assay, 48 hours incubation; for IC50: Homo sapiens, read-out: Human cancer cell lines IC50, HCT (Colon)
Procedure: as §1

THP-1 (Leukemia) = experiment: Sulphorhodamine B cytotoxicity assay, THP-1; assay type: cell-based, human; set-up: key to Human cancer cell lines IC50, THP-1 (Leukemia): Inactive: inactive, if IC50 > 100 μM; details: for IC50: Homo sapiens, THP-1, read-out: Human cancer cell lines IC50, THP-1 (Leukemia); for IC50 / Human cancer cell lines IC50, THP-1 (Leukemia): SRB assay, 48 hours incubation
Procedure: as §1

HeLa (Cervix) = experiment: Sulphorhodamine B cytotoxicity assay, HeLa; assay type: cell-based, human; set-up: key to Human cancer cell lines IC50, HeLa (Cervix): Inactive: inactive, if IC50 > 100 μM; details: SRB assay, 48 hours incubation
Procedure: as §1

MCF-7 (Breast cancer) = experiment: Sulphorhodamine B cytotoxicity assay, MCF-7; assay type: cell-based, human; set-up: key to Human cancer cell lines IC50, MCF-7 (Breast cancer): Inactive: inactive, if IC50 > 100 μM; details: for IC50: Homo sapiens, MCF7, read-out: Human cancer cell lines IC50, MCF-7 (Breast cancer)
Procedure: as §1

DU-145 (prostate) = experiment: Sulphorhodamine B cytotoxicity assay, DU-145; assay type: cell-based, human; set-up: key to Human cancer cell lines IC50, DU-145 (prostate): Inactive: inactive, if IC50 > 100 μM; details: SRB assay, 48 hours incubation; for IC50: Homo sapiens, DU-145, read-out: Human cancer cell lines IC50, DU-145 (prostate)
Procedure: as §1

tubulin protein = experiment: In-vitro tubulin polymerisation inhibition assay; assay type: biochemical; set-up: key to Tubulin polymerisation inhibition IC50: Inactive: inactive, if IC50 > 10 μM; details: for IC50: read-out: Tubulin polymerisation inhibition IC50; for IC50 / Tubulin polymerisation inhibition IC50: tubulin 3 mg/mL, 37° C., 340 nm, 1 h
Procedure: The tubulin polymerization experiment was performed using ‘assay kit’ (Cytoskeleton USA) following manufacturer's protocol based on the procedure described by of Shelanski et al. (1973) and Lee et al. (1977). Briefly, tubulin protein (3 mg/mL) in tubulin polymerization buffer (80 mM PIPES, pH 6.9, 2 mM MgCl2, 0.5 mM EGTA, 1 mM GTP and 15% glycerol) was placed in pre-warmed 96-well microtiter plates at 37° C. in the presence of test compounds with variable concentrations. All samples were mixed well and polymerization was monitored kinetically at 340 nm every min for 1 h using a Spectramax plate reader. Podophyllotoxin and etoposide were used as positive controls and DMSO as negative control. The IC50 value was determined from dose-dependent analysis and is defined as the concentration that inhibits the rate of polymerization by 50%.
Podophyllotoxin and etoposide, standard tubulin polymerisation inhibitors were used as positive controls.

Structure (SMILES)	IC50 (A549 (Lung)) [µM]	IC50 (PC-3 (prostate)) [µM]	IC50 (HCT (Colon)) [µM]	activity against leukemia cell lines (THP), in words (THP-1 (Leukemia))	IC50 (THP-1 (Leukemia)) [µM]	Human cancer cell lines IC50, HeLa (Cervix) (HeLa (Cervix))	IC50 (MCF-7 (Breast cancer); SRB assay, 48 hours incubation) [µM]	Human cancer cell lines IC50, DU-145 (prostate) (DU-145 (prostate))	inhibition of tubulin polymerisation, in words (tubulin protein)	IC50 (tubulin protein) [nM]	melting point [°C]	Human cancer cell lines IC50, A549 (Lung) (A549 (Lung))	Human cancer cell lines IC50, HCT (Colon) (HCT (Colon))	Human cancer cell lines IC50, THP-1 (Leukemia) (THP-1 (Leukemia))	Human cancer cell lines IC50, MCF-7 (Breast cancer) (MCF-7 (Breast cancer); SRB assay, 48 hours incubation)	IC50 (DU-145 (prostate)) [µM]	Tubulin polymerisation inhibition IC50 (tubulin protein)	Human cancer cell lines IC50, PC-3 (prostate) (PC-3 (prostate))	IC50 (HeLa (Cervix); Homo sapiens, HeLa, read-out: Human cancer cell lines IC50, HeLa (Cervix)) [µM]	anticancer activity against human breast cancer cells (MCF-7), in words (MCF-7 (Breast cancer))
COc1cc(C2/C(=C/c3ccc(C(F)(F)F)cc3)C(=O)c3cc(OC)c(OC)c(OC)c32)cc(OC)c1OC (stereo not drawn) [Compound 20, 2-(4″-trifluoromethylbenzylidene), 3-(3′,4′,5′-trimethoxyphenyl)-4,5,6-trimethoxy indan-1-one]	61.5	27.9	92	potent activity	8.67	Inactive	68.9	Inactive	strong inhibition	600	188 to 190	–	–	–	–	–	–	–	–	–
COc1cc(C2/C(=C/c3ccc(OCc4ccccc4)cc3)C(=O)c3cc(OC)c(OC)c(OC)c32)cc(OC)c1OC (stereo not drawn) [Compound 22, 2-(4″-benzyloxybenzylidene), 3-(3′,4′,5′-trimethoxyphenyl)-4,5,6-trimethoxy indan-1-one]	–	78.9	–	–	–	Inactive	–	–	–	–	188 to 190	Inactive	Inactive	Inactive	Inactive	78.9	Inactive	–	–	–
COc1cc(OC)c(OC)cc1/C=C1\C(=O)c2cc(OC)c(OC)c(OC)c2C1c1cc(OC)c(OC)c(OC)c1 (stereo not drawn) [Compound 16, 2-(2″,4″,5″-trimethoxybenzylidene), 3-(3′,4′,5′-trimethoxyphenyl)-4,5,6-trimethoxy indan-1-one]	87.2	64.9	–	–	81.5	Inactive	56.5	Inactive	strong inhibition	4210	203 to 205	–	Inactive	–	–	–	–	–	–	–
COc1cc(C2/C(=C/c3cccc4c3OCO4)C(=O)c3cc(OC)c(OC)c(OC)c32)cc(OC)c1OC (stereo not drawn) [Compound 17, 2-(2″,3″-methylenedioxybenzlidene), 3-(3′,4′,5′-trimethoxyphenyl)-4,5,6-trimethoxy indan-1-one]	82.2	–	45.9	–	–	Inactive	57.2	Inactive	–	–	180 to 182	–	–	Inactive	–	–	Inactive	Inactive	–	–
COc1cc(C2/C(=C/c3ccc(F)cc3)C(=O)c3cc(OC)c(OC)c(OC)c32)cc(OC)c1OC (stereo not drawn) [Compound 18, 2-(4″-fluorobenzylidene), 3-(3′,4′,5′-trimethoxyphenyl)-4,5,6-trimethoxy indan-1-one]	26.9	38.6	–	potent activity	2.88	–	0.68	–	strong inhibition	730	156 to 158	–	Inactive	–	–	54.1	–	–	66.5	potent anticancer activity
COc1ccc(/C=C2\C(=O)c3cc(OC)c(OC)c(OC)c3C2c2cc(OC)c(OC)c(OC)c2)c(OC)c1 (stereo not drawn) [Compound 21, 2-(2″,4″-dimethoxybenzylidene), 3-(3′,4′,5′-trimethoxyphenyl)-4,5,6-trimethoxy indan-1-one]	71.6	71.7	11.1	–	–	Inactive	1	–	strong inhibition	3040	191 to 192	–	–	Inactive	–	2.04	–	–	–	potent anticancer activity
COc1cc(C2/C(=C/c3ccc(OC)c(OC)c3OC)C(=O)c3cc(OC)c(OC)c(OC)c32)cc(OC)c1OC (stereo not drawn) [Compound 15, 2-(2″,3″,4″-trimethoxybenzylidene), 3-(3′,4′,5′-trimethoxyphenyl)-4,5,6-trimethoxy, indan-1-one]	93	85	79.6	–	–	Inactive	8.88	Inactive	–	–	163 to 165	–	–	Inactive	–	–	Inactive	–	–	potent anticancer activity

From patent publication US8633242B2, “Benzylidene indanones and processes for preparation and use thereof” (Council of Scientific and Industrial Research, priority 2011, dated 2014)
